From patent US5594157A, “Process for making taxol derivatives” (Abbott Laboratories, priority 1995, dated 1997)
≈ marks a conversion by molar mass, not a printed value. Read-outs that look alike come from different tables or passages of the source.

Columns and labels:
[1] = tested on: A549; experiment: In vitro tumor cell cytotoxicity, three day MTT microtiter assay (A549); type: cell-based, human; settings: for IC50: Homo sapiens, read-out: In vitro tumor cell cytotoxicity (IC50)
Protocol: (§1) A three day microtiter assay was used to measure the growth inhibition of cultured cells exposed to a range of drug concentrations. Metabolic activity was measured by the cells' ability to reduce the tetrazolium dye, MTT (3-(4,5-dimethylthiazol-2-yl-2,5-diphenyltetrazolium bromide) to a quantifiable colored end product, which absorbs at 570 nm in the visible spectrum. Surviving cells reduce the MTT dye.
(§2) Test compounds were dissolved in dimethyl sulfoxide (DMSO) and diluted, first with Earle's Balanced Salt Solution, followed by culture medium, to twice the highest concentration of compound to be tested. From this concentrated stock, two-fold serial dilutions were prepared in 96-well microtiter trays, each well containing twice the desired final concentration of compound. Each concentration was tested in triplicate and compared to triplicate drug-free controls.
(§3) The cells were grown in the same medium used for diluting the compounds and then harvested using trypsinization. This involved removing the medium by aspiration; rinsing the cell monolayer twice with Earle's Balanced Salt Solution; adding trypsin (0.05%)/EDTA (0.53 mM; for each 25 cm^2, approximately 0.2 mL), tilting to cover the monolayer, and then withdrawing trypsin leaving only a thin film of solution; incubating at room temperature until the cell monolayers detached (as determined by visual and/or microscopic observation); adding medium contaiing fetal calf serum to stop the action of the trypsin and resuspend the cells; triturating to aid dissociation of cell clumps; and determining the number of cells per milliliter by electronic cell counter (e.g. Coulter Counter) or by mixing an aliquot of cell suspension with Trypan Blue (0.4% in normal saline) and counting the viable cells using a hemacytometer.
(§4) After harvesting and determination of viable cell counts, cell density was adjusted to 25,000 cells/mL. Inoculum (0.1 mL) containing the cells was then added to each well for a final concentration of 2,500 cells per well. Addition of the inoculum diluted the test compounds to the desired final concentration.
(§5) Microtiter trays were then incubated for three days at 36° C. in a humidified atmosphere containing 5% carbon dioxide. After three days, 20 microtiters of 5 mg/mL MTT in phosphate-buffered saline solution were added to each well. Trays were returned to the incubator for two to four hours to allow the surviving cells to reduce the dye. Medium and unreduced dye were removed by aspiration. DMSO was added to each well to dissolve the water-insoluble, colored end product of the dye reduction so that it could be measured spectrophotometrically at 570 nm.

[2] = tested on: P-388; experiment: In vitro tumor cell cytotoxicity, three day MTT microtiter assay (P-388); type: cell-based, mouse; settings: for IC50: P388, 72 h, read-out: In vitro tumor cell cytotoxicity (IC50)
Protocol: as §1, §2, §3, §4, §5

[3] = P-388 (mouse leukemia), 3 days, MTT, absorbance at 570 nm
[4] = 72 h, A549, 3 days, MTT, absorbance at 570 nm

CC(=O)O[C@@H]1C2=C(C)[C@@H](OC(=O)[C@H](O)[C@@H](NC(=O)c3ccccc3)c3ccccc3)C[C@@](O)([C@@H](OC(=O)c3ccccc3)[C@@H]3[C@]4(OC(C)=O)CO[C@@H]4C[C@H](O)[C@@]3(C)[C@H]1O)C2(C)C [Example 8, 9-Dihydrotaxol]
IC50 ([1]; A549, 72 h): 0.016 µg/mL (≈ 0.0187 µM) | IC50 ([2]; Mus musculus): 0.049 µg/mL (≈ 0.0572 µM)

CC(=O)O[C@@]12CO[C@@H]1C[C@H](O)[C@]1(C)[C@@H]2[C@H](OC(=O)c2ccccc2)[C@]2(O)C[C@H](OC(=O)[C@H](O)[C@@H](NC(=O)c3ccccc3)c3ccccc3)C(C)=C([C@@H](O)[C@@H]1O)C2(C)C [Example 9, 10-Deacetyl-9-dihydrotaxol]
In vitro tumor cell cytotoxicity (IC50) ([1]; A549, 3 days, MTT, absorbance at 570 nm): 0.011 µg/mL | In vitro tumor cell cytotoxicity (IC50) [2, 3]: 0.14 µg/mL

CC(=O)O[C@@H]1C2=C(C)[C@@H](OC(=O)[C@H](O)[C@@H](NC(=O)c3ccccc3)c3ccccc3)C[C@@](O)([C@@H](OC(=O)c3ccccc3)[C@@H]3[C@]4(OC(C)=O)CO[C@@H]4C[C@@H]4OC(C)(C)O[C@@H]1[C@]43C)C2(C)C [Example 10, 9-Dihydrotaxol-7,9-isopropylidene ketal]
IC50 ([1]; A549, 72 h): 0.025 µg/mL (≈ 0.0279 µM) | IC50 ([2]; Mus musculus): 0.042 µg/mL (≈ 0.0469 µM)

CCC1O[C@H]2C[C@H]3OC[C@@]3(OC(C)=O)[C@H]3[C@H](OC(=O)c4ccccc4)[C@]4(O)C[C@H](OC(=O)[C@H](O)[C@@H](NC(=O)c5ccccc5)c5ccccc5)C(C)=C([C@@H](OC(C)=O)[C@H](O1)[C@]23C)C4(C)C (stereo partly drawn) [Example 11, 9-Dihydrotaxol-7,9-propylidene acetal]
IC50 ([1]; A549, 72 h): 0.023 µg/mL (≈ 0.0257 µM) | IC50 ([2]; Mus musculus): 0.022 µg/mL (≈ 0.0246 µM)

CC(=O)O[C@@H]1C2=C(C)[C@@H](OC(=O)[C@H](O)[C@@H](NC(=O)c3ccccc3)c3ccccc3)C[C@@](O)([C@@H](OC(=O)c3ccccc3)[C@@H]3[C@]4(OC(C)=O)CO[C@@H]4C[C@@H]4OC(c5ccccc5)O[C@@H]1[C@]43C)C2(C)C (stereo partly drawn) [Example 12, 9-Dihydrotaxol-7,9-benzylidene acetal]
IC50 [1, 4]: 1 µg/mL (≈ 1.06 µM) | IC50 [2, 3]: 1 µg/mL (≈ 1.06 µM)

CC(=O)O[C@@H]1C2=C(C)[C@@H](OC(=O)[C@H](O)[C@@H](NC(=O)c3ccccc3)c3ccccc3)C[C@@](O)([C@@H](OC(=O)c3ccccc3)[C@@H]3[C@]4(OC(C)=O)CO[C@@H]4C[C@@H]4OC(CC(O)CO)O[C@@H]1[C@]43C)C2(C)C (stereo partly drawn) [Example 13, 9-Dihydrotaxol-7,9-(3,4-dihydroxy)butylidene acetal]
IC50 ([1]; A549, 72 h): 0.3 µg/mL (≈ 0.318 µM) | IC50 ([2]; Mus musculus): 0.18 µg/mL (≈ 0.191 µM)

CC(=O)O[C@@H]1C2=C(C)[C@@H](OC(=O)[C@H](O)[C@@H](NC(=O)c3ccccc3)c3ccccc3)C[C@@](O)([C@@H](OC(=O)c3ccccc3)[C@@H]3[C@]4(OC(C)=O)CO[C@@H]4C[C@@H]4OC(=S)O[C@@H]1[C@]43C)C2(C)C [Example 14, 9-Dihydrotaxol-7,9-thionocarbonate]
IC50 ([1]; A549, 72 h): 0.019 µg/mL (≈ 0.0212 µM) | IC50 ([2]; Mus musculus): 0.035 µg/mL (≈ 0.039 µM)

C=CCO[C@H]1C[C@H]2OC[C@@]2(OC(C)=O)[C@H]2[C@H](OC(=O)c3ccccc3)[C@]3(O)C[C@H](OC(=O)[C@H](O)[C@@H](NC(=O)c4ccccc4)c4ccccc4)C(C)=C([C@@H](OC(C)=O)[C@H](O)[C@]12C)C3(C)C [Example 15, 9-Dihydrotaxol-7-O-allyl ether]
IC50 ([1]; A549, 72 h): 0.001 µg/mL (≈ 0.00112 µM) | IC50 ([2]; Mus musculus): 0.0053 µg/mL (≈ 0.00592 µM)

CC(=O)O[C@@H]1C2=C(C)[C@@H](OC(=O)[C@H](O)[C@@H](NC(=O)c3ccccc3)c3ccccc3)C[C@@](O)([C@@H](OC(=O)c3ccccc3)[C@@H]3[C@]4(OC(C)=O)CO[C@@H]4C[C@H](OCC(O)CO)[C@@]3(C)[C@H]1O)C2(C)C (stereo partly drawn) [Example 16, 9-dihydrotaxol 7-O-(2,3-dihydroxypropyl) ether]
IC50 [1, 4]: 0.626 µg/mL (≈ 0.673 µM) | IC50 [2, 3]: > 1 µg/mL

CCN(CC)CCO[C@H]1C[C@H]2OC[C@@]2(OC(C)=O)[C@H]2[C@H](OC(=O)c3ccccc3)[C@]3(O)C[C@H](OC(=O)[C@H](O)[C@@H](NC(=O)c4ccccc4)c4ccccc4)C(C)=C([C@@H](OC(C)=O)[C@H](O)[C@]12C)C3(C)C [Example 17]
IC50 ([1]; A549, 72 h): 0.4 µg/mL (≈ 0.419 µM) | IC50 ([2]; Mus musculus): 0.31 µg/mL (≈ 0.325 µM)

CC(=O)O[C@@H]1C2=C(C)[C@@H](OC(=O)[C@H](O)[C@@H](NC(=O)c3ccccc3)c3ccccc3)C[C@@](O)([C@@H](OC(=O)c3ccccc3)[C@@H]3[C@]4(OC(C)=O)CO[C@@H]4C[C@H](OCCO)[C@@]3(C)[C@H]1O)C2(C)C [Example 18, 9-Dihydrotaxol 7-O-(2-Hydroxyethyl) ether]
IC50 [1, 4]: 0.039 µg/mL (≈ 0.0433 µM) | IC50 [2, 3]: 0.17 µg/mL (≈ 0.189 µM)

CC(=O)OCCO[C@H]1C[C@H]2OC[C@@]2(OC(C)=O)[C@H]2[C@H](OC(=O)c3ccccc3)[C@]3(O)C[C@H](OC(=O)[C@H](O)[C@@H](NC(=O)c4ccccc4)c4ccccc4)C(C)=C([C@@H](OC(C)=O)[C@H](O)[C@]12C)C3(C)C [Example 19, 9-Dihydrotaxol 7-O-(2-Acetoxyethyl) ether]
IC50 [1, 4]: 0.12 µg/mL (≈ 0.127 µM) | IC50 [2, 3]: 0.079 µg/mL (≈ 0.0839 µM)

CC(=O)O[C@@H]1C2=C(C)[C@@H](OC(=O)[C@H](O)[C@@H](NC(=O)OC(C)(C)C)c3ccccc3)C[C@@](O)([C@@H](OC(=O)c3ccccc3)[C@@H]3[C@]4(OC(C)=O)CO[C@@H]4C[C@H](O)[C@@]3(C)[C@H]1O)C2(C)C [Example 20, N-Debenzoyl-N-t-butoxycarbonyl-9-dihydrotaxol]
IC50 [1, 4]: 0.0003 µg/mL (≈ 0.000352 µM) | IC50 [2, 3]: 0.0025 µg/mL (≈ 0.00293 µM)

CC(=O)O[C@@]12CO[C@@H]1C[C@H](O)[C@]1(C)[C@@H]2[C@H](OC(=O)c2ccccc2)[C@]2(O)C[C@H](OC(=O)[C@H](O)[C@@H](NC(=O)OC(C)(C)C)c3ccccc3)C(C)=C([C@@H](O)[C@@H]1O)C2(C)C [Example 21, 10-Deacetyl-N-debenzoyl-N-t-butoxycarbonyl-9-dihydrotaxol]
IC50 [1, 4]: 0.00026 µg/mL (≈ 0.000321 µM) | IC50 [2, 3]: 0.0028 µg/mL (≈ 0.00346 µM)

CC(=O)O[C@@H]1C2=C(C)[C@@H](OC(=O)[C@H](O)[C@@H](NC(=O)CC(C)(C)C)c3ccccc3)C[C@@](O)([C@@H](OC(=O)c3ccccc3)[C@@H]3[C@]4(OC(C)=O)CO[C@@H]4C[C@H](O)[C@@]3(C)[C@H]1O)C2(C)C [Example 22, N-Debenzoyl-N-t-butylacetyl-9-dihydrotaxol]
IC50 [1, 4]: 0.027 µg/mL (≈ 0.0318 µM) | IC50 [2, 3]: 0.052 µg/mL (≈ 0.0612 µM)

CC(=O)O[C@@H]1C2=C(C)[C@@H](OC(=O)[C@H](O)[C@@H](NC(=O)OCC(C)C)c3ccccc3)C[C@@](O)([C@@H](OC(=O)c3ccccc3)[C@@H]3[C@]4(OC(C)=O)CO[C@@H]4C[C@H](O)[C@@]3(C)[C@H]1O)C2(C)C [Example 23, N-Debenzoyl-N-isobutoxycarbonyl-9-dihydrotaxol]
IC50 ([1]; A549, 72 h): 0.0043 µg/mL (≈ 0.00505 µM) | IC50 ([2]; Mus musculus): 0.028 µg/mL (≈ 0.0329 µM)

CC(=O)O[C@@H]1C2=C(C)[C@@H](OC(=O)[C@H](O)[C@@H](NC(=O)OC34CC5CC(CC(C5)C3)C4)c3ccccc3)C[C@@](O)([C@@H](OC(=O)c3ccccc3)[C@@H]3[C@]4(OC(C)=O)CO[C@@H]4C[C@H](O)[C@@]3(C)[C@H]1O)C2(C)C [Example 24, N-Debenzoyl-N-adamantoxycarbonyl-9-dihydrotaxol]
IC50 ([1]; A549, 72 h): 0.0043 µg/mL (≈ 0.00462 µM) | IC50 ([2]; Mus musculus): 0.01 µg/mL (≈ 0.0108 µM)

CC(=O)O[C@@H]1C2=C(C)[C@@H](OC(=O)[C@H](O)[C@@H](NC(=O)OC(C)C)c3ccccc3)C[C@@](O)([C@@H](OC(=O)c3ccccc3)[C@@H]3[C@]4(OC(C)=O)CO[C@@H]4C[C@H](O)[C@@]3(C)[C@H]1O)C2(C)C [Example 25, N-Debenzoyl-N-isopropoxycarbonyl-9-dihydrotaxol]
IC50 [1, 4]: 0.0012 µg/mL (≈ 0.00143 µM) | IC50 [2, 3]: 0.0092 µg/mL (≈ 0.011 µM)

CC(=O)O[C@@H]1C2=C(C)[C@@H](OC(=O)[C@H](O)[C@@H](NC(=O)OCc3ccccc3)c3ccccc3)C[C@@](O)([C@@H](OC(=O)c3ccccc3)[C@@H]3[C@]4(OC(C)=O)CO[C@@H]4C[C@H](O)[C@@]3(C)[C@H]1O)C2(C)C [Example 26, N-Debenzoyl-N-benzyloxycarbonyl-9-dihydrotaxol]
IC50 ([1]; A549, 72 h): 0.031 µg/mL (≈ 0.035 µM) | IC50 ([2]; Mus musculus): 0.057 µg/mL (≈ 0.0643 µM)

CC(=O)O[C@@H]1C2=C(C)[C@@H](OC(=O)[C@H](O)[C@@H](NC(=O)C(C)(C)C)c3ccccc3)C[C@@](O)([C@@H](OC(=O)c3ccccc3)[C@@H]3[C@]4(OC(C)=O)CO[C@@H]4C[C@H](O)[C@@]3(C)[C@H]1O)C2(C)C [Example 28, N-Debenzoyl-N-pivaloyl-9-dihydrotaxol]
IC50 [1, 4]: 0.11 µg/mL (≈ 0.132 µM) | IC50 [2, 3]: 0.083 µg/mL (≈ 0.0993 µM)

CC(=O)N[C@@H](c1ccccc1)[C@@H](O)C(=O)O[C@H]1C[C@@]2(O)[C@@H](OC(=O)c3ccccc3)[C@@H]3[C@]4(OC(C)=O)CO[C@@H]4C[C@H](O)[C@@]3(C)[C@@H](O)[C@H](OC(C)=O)C(=C1C)C2(C)C [Example 29, N-Debenzoyl-N-acetyl-9-dihydrotaxol]
IC50 [1, 4]: 2.1 µg/mL (≈ 2.65 µM) | IC50 [2, 3]: 2.02 µg/mL (≈ 2.54 µM)
